This assay addresses T1, hα4 and β1 integrins (Homo sapiens, UniProt P05556+P13612).
T1 construct: expressed in transfected cells; host or cells: CHO cells
The assay can be described thus: In vitro inhibition of binding between CHO cells expressing hα4 and β1 integrins and Eu3+-hVCAM-1 D1D7-IgG. The following applies: for Ki: CHO cells expressing hα4 and β1 integrins, Eu3+-hVCAM-1 D1D7-IgG ligand, without HSA; for IC50: in the presence of 3% human serum albumin (HSA final concentration 3%). An outline of the steps: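 Bound europium-labelled VCAM-1 D1D7-IgG on α4β1-expressing CHO cells was measured by time-resolved fluorescence after washing at 4 °C. Ligand (2 nM working dilution) and test compound, with or without 3% final HSA, were co-incubated for 1 h at room temperature in Mn²⁺-containing HEPES buffer, pH 7.5. IC50 came from % binding inhibition; Ki was calculated from ligand concentration and Scatchard Kd.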

Structures are written as SMILES.

The record followed here is patent US8129366B2, “VLA-4 inhibitory drug” (Daiichi Sankyo Company, Limited, priority 2005, dated 2012).

T1 sequence (P13612 34-1032): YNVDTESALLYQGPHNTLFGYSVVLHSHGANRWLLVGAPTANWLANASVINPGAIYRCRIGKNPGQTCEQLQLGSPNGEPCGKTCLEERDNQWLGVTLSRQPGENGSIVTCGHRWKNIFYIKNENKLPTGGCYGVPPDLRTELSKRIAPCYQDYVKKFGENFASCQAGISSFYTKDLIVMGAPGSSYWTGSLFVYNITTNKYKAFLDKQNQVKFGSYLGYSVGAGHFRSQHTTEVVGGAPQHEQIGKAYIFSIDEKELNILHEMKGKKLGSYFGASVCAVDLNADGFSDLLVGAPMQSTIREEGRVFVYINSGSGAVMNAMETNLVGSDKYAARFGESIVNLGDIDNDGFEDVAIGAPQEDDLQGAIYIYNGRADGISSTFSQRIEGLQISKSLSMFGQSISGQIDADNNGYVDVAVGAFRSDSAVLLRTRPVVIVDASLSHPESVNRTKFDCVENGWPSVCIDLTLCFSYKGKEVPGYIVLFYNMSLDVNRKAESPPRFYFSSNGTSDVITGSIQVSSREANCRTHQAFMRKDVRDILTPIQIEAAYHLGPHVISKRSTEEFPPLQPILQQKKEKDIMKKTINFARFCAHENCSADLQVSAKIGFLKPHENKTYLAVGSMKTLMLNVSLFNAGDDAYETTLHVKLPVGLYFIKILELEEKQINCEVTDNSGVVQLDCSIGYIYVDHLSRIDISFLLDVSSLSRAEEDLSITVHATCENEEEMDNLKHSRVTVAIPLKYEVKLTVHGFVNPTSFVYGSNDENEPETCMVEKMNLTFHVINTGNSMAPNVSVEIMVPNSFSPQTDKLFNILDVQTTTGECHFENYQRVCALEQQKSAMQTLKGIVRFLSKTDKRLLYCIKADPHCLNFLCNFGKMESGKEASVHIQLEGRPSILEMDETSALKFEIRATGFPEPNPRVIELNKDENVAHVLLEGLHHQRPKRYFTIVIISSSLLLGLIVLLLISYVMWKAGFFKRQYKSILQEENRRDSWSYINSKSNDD
T1 sequence (P05556 21-798): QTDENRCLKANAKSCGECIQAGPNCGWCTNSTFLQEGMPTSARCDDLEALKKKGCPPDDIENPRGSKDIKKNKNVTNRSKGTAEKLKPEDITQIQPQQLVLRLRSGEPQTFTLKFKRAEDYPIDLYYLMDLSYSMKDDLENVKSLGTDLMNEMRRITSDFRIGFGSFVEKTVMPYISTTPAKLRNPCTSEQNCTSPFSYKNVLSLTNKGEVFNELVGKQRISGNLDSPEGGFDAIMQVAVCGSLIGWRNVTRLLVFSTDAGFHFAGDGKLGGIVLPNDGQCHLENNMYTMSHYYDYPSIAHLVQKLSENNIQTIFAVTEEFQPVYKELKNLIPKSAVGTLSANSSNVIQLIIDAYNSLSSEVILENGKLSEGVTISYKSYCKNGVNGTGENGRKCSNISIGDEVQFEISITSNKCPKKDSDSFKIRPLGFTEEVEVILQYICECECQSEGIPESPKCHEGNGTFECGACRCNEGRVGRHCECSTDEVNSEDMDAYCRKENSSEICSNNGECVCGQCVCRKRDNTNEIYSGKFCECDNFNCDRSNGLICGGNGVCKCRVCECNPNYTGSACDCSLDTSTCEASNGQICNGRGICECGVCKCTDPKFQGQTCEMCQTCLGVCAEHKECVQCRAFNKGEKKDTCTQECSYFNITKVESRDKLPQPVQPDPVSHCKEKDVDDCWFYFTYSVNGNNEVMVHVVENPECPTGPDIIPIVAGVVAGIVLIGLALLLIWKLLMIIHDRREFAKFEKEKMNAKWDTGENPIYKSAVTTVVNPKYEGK

As usually defined, the Ki is the dissociation constant of the complex between target and ligand, obtained from inhibition or displacement. As usually defined, the IC50 is the concentration needed to halve the response being measured. In the case of `CO[C@H]1CN([C@H]2C[C@@H](CO[C@H]3CC[C@H](C(=O)O)CC3)N(C(=O)Cc3cc(Cl)c(NC(=O)c4csc5ccccc45)cc3F)C2)C[C@H]1OC` [Example 57, Trans-4-[1-[[4-[(benzo[b]thiophen-3-ylcarbonyl)amino]-5-chloro-2-fluorophenyl]acetyl]-(4S)-(cis-3,4-dimethoxypyrrolidin-1-yl)-(2S)-pyrrolidinylmethoxy]cyclohexanecarboxylic acid], the Ki came out at 1.4 nM and the IC50 stood at 6.2 nM.
On the same counts, the results for `Cn1cc(C(=O)Nc2cc(Cl)c(CC(=O)N3C[C@@H](N4CCN(CC(F)(F)F)CC4)C[C@H]3CO[C@H]3CC[C@H](C(=O)O)CC3)cc2Cl)c2ccccc21` [Example 122, Trans-4-[1-[[2,5-dichloro-4-[(1-methyl-1H-indol-3-ylcarbonyl)amino]phenyl]acetyl]-(4S)-[4-(2,2,2-trifluoroethyl)piperazin-1-yl]-(2S)-pyrrolidinylmethoxy]cyclohexanecarboxylic acid] are 8.8 nM and 36 nM.
On the same counts, the results for `Cn1cc(C(=O)Nc2cc(Cl)c(CC(=O)N3C[C@@H](N4CCN(CC(F)F)CC4)C[C@H]3CO[C@H]3CC[C@H](C(=O)O)CC3)cc2Cl)c2ccccc21` [Example 120, Trans-4-[1-[[2,5-dichloro-4-[(1-methyl-1H-indol-3-ylcarbonyl)amino]phenyl]acetyl]-(4S)-[4-(2,2-difluoroethyl)piperazin-1-yl]-(2S)-pyrrolidinylmethoxy]cyclohexanecarboxylic acid] are 3.8 nM and 16 nM.
On the same counts, the results for `O=C(Nc1cc(F)c(CC(=O)N2C[C@@H](N3CCN(CC(F)(F)F)CC3)C[C@H]2CO[C@H]2CC[C@H](C(=O)O)CC2)cc1Cl)c1csc2ccccc12` [Example 123, Trans-4-[1-[[4-[(benzo[b]thiophen-3-ylcarbonyl)amino]-5-chloro-2-fluorophenyl]acetyl]-(4S)-[4-(2,2,2-trifluoroethyl)piperazin-1-yl]-(2S)-pyrrolidinylmethoxy]cyclohexanecarboxylic acid] are 1.8 nM and 10 nM.
For `O=C(Nc1ccc(CC(=O)N2C[C@@H](N3CCN(CC(F)(F)F)CC3)C[C@H]2CO[C@H]2CC[C@H](C(=O)O)CC2)cc1Cl)c1coc2ccccc12` [Example 132, Trans-4-[1-[[4-[(benzo[b]furan-3-ylcarbonyl)amino]-3-chlorophenyl]acetyl]-(4S)-[4-(2,2,2-trifluoroethyl)piperazin-1-yl]-(2S)-pyrrolidinylmethoxy]cyclohexanecarboxylic acid], the Ki was found to be 1.7 nM and the IC50 is 4 nM.
The corresponding values for `Cn1cc(C(=O)Nc2cc(Cl)c(CC(=O)N3C[C@@H](N4CCN(CC5CC5)CC4)C[C@H]3CO[C@H]3CC[C@H](C(=O)O)CC3)cc2Cl)c2ccccc21` [Example 115, Trans-4-[1-[[2,5-dichloro-4-[(1-methyl-1H-indol-3-ylcarbonyl)amino]phenyl]acetyl]-(4S)-[(4-cyclopropylmethyl)piperazin-1-yl]-(2S)-pyrrolidinylmethoxy]cyclohexanecarboxylic acid] are 4.2 nM and 13 nM.
The corresponding values for `Cn1nc(C(=O)Nc2ccc(CC(=O)N3C[C@@H](N4CCN(CC(F)(F)F)CC4)C[C@H]3CO[C@H]3CC[C@H](C(=O)O)CC3)cc2Cl)c2ccccc21` [Example 128, Trans-4-[1-[[3-chloro-4-[(1-methyl-1H-indazol-3-ylcarbonyl)amino]phenyl]acetyl]-(4S)-[4-(2,2,2-trifluoroethyl)piperazin-1-yl]-(2S)-pyrrolidinylmethoxy]cyclohexanecarboxylic acid] are 3.9 nM and 13 nM.
The corresponding values for `O=C(Nc1cc(F)c(CC(=O)N2C[C@@H](N3CCSCC3)C[C@H]2CO[C@H]2CC[C@H](C(=O)O)CC2)cc1Cl)c1coc2ccccc12` [Example 159, Trans-4-[1-[[4-[(benzo[b]furan-3-ylcarbonyl)amino]-5-chloro-2-fluorophenyl]acetyl]-(4S)-(thiomorpholin-4-yl)-(2S)-pyrrolidinylmethoxy]cyclohexanecarboxylic acid] are 4.4 nM and 13 nM.
For the compound `CC(C)(C)N1CCN([C@H]2C[C@@H](CO[C@H]3CC[C@H](C(=O)O)CC3)N(C(=O)Cc3cc(Cl)c(NC(=O)c4coc5ccccc45)cc3Cl)C2)CC1` [Example 114, Trans-4-[1-[[4-[(benzo[b]furan-3-ylcarbonyl)amino]-2,5-dichlorophenyl]acetyl]-(4S)-[4-(tert-butyl)piperazin-1-yl]-(2S)-pyrrolidinylmethoxy]cyclohexanecarboxylic acid], affinity was put at a Ki of 3 nM and the IC50 turned out to be 8.9 nM.
On the same counts, the results for `CC1CN([C@H]2C[C@@H](CO[C@H]3CC[C@H](C(=O)O)CC3)N(C(=O)Cc3cc(Cl)c(NC(=O)c4cn(C)c5ccccc45)cc3Cl)C2)CC(C)O1` (stereo partly drawn) [Example 91, Trans-4-[1-[[2,5-dichloro-4-[(1-methyl-1H-indol-3-ylcarbonyl)amino]phenyl]acetyl]-(4S)-(2,6-dimethylmorpholin-4-yl)-(2S)-pyrrolidinylmethoxy]cyclohexanecarboxylic acid] are 2.4 nM and 81 nM.
On the same counts, the results for `COC1CCN([C@H]2C[C@@H](CC[C@H]3CC[C@H](C(=O)O)CC3)N(C(=O)Cc3cc(Cl)c(NC(=O)c4cn(C)c5ccccc45)cc3Cl)C2)CC1` [Example 104, Trans-4-[2-[1-[[2,5-dichloro-4-[(1-methyl-1H-indol-3-ylcarbonyl)amino]phenyl]acetyl]-(4S)-(4-methoxypiperidin-1-yl)-(2S)-pyrrolidinyl]ethyl]cyclohexanecarboxylic acid] are 4.9 nM and 13 nM.
On the same counts, the results for `CO[C@@H]1CN([C@H]2C[C@@H](CO[C@H]3CC[C@H](C(=O)O)CC3)N(C(=O)Cc3cc(Cl)c(NC(=O)c4cn(C)c5ccccc45)cc3Cl)C2)C[C@H]1OC` [Example 64, Trans-4-[1-[[2,5-dichloro-4-[(1-methyl-1H-indol-3-ylcarbonyl)amino]phenyl]acetyl]-(4S)-[(3R,4R)-dimethoxypyrrolidin-1-yl]-(2S)-pyrrolidinylmethoxy]cyclohexanecarboxylic acid] are 5 nM and 33 nM.
For the compound `Cn1cc(C(=O)Nc2cc(F)c(CC(=O)N3C[C@@H](N4CCN(C5(C)CC5)CC4)C[C@H]3CO[C@H]3CC[C@H](C(=O)O)CC3)cc2Cl)c2ccccc21` [Example 141, Trans-4-[1-[[5-chloro-2-fluoro-4-[(1-methyl-1H-indol-3-ylcarbonyl)amino]phenyl]acetyl]-(4S)-[4-(1-methylcyclopropan-1-yl)piperazin-1-yl]-(2S)-pyrrolidinylmethoxy]cyclohexa necarboxylic acid], the Ki is 6.3 nM and the IC50 came to 23 nM.
On the same counts, the results for `COC[C@@H]1C[C@H](F)CN1[C@H]1C[C@@H](CO[C@H]2CC[C@H](C(=O)O)CC2)N(C(=O)Cc2cc(Cl)c(NC(=O)c3cn(C)c4ccccc34)cc2Cl)C1` [Example 45, Trans-4-[1-[[2,5-dichloro-4-[(1-methyl-1H-indol-3-ylcarbonyl)amino]phenyl]acetyl]-(4S)-[(4S)-fluoro-(2S)-methoxymethylpyrrolidin-1-yl]-(2S)-pyrrolidinylmethoxy]cyclohexane carboxylic acid] are 14 nM and 15 nM.
Consider `C[C@@H]1COC[C@H](C)N1[C@H]1C[C@@H](CO[C@H]2CC[C@H](C(=O)O)CC2)N(C(=O)Cc2cc(Cl)c(NC(=O)c3cn(C)c4ccccc34)cc2Cl)C1` [Example 93, Trans-4-[1-[[2,5-dichloro-4-[(1-methyl-1H-indol-3-ylcarbonyl)amino]phenyl]acetyl]-(4S)-(cis-3,5-dimethylmorpholin-4-yl)-(2S)-pyrrolidinylmethoxy]cyclohexanecarboxylic acid], for which the affinity, expressed as Ki, was 3.6 nM and the IC50 worked out at 22 nM.
Take `Cn1cc(C(=O)Nc2cc(F)c(CC(=O)N3C[C@@H](N4CCS(=O)(=O)CC4)C[C@H]3CO[C@H]3CC[C@H](C(=O)O)CC3)cc2Cl)c2ccccc21` [Example 160, Trans-4-[1-[[5-chloro-2-fluoro-4-[(1-methyl-1H-indol-3-ylcarbonyl)amino]phenyl]acetyl]-(4S)-(1,1-dioxo-1λ^6-thiomorpholin-4-yl)-(2S)-pyrrolidinylmethoxy]cyclohexanecarboxylic acid]: the affinity, expressed as Ki, was 2.4 nM and the IC50 turned out to be 9.9 nM.
With `CN1CCN([C@H]2C[C@@H](CO[C@H]3CC[C@H](C(=O)O)CC3)N(C(=O)Cc3cc(Cl)c(NC(=O)c4cn(C)c5ccccc45)cc3Cl)C2)CC1=O` [Example 152, Trans-4-[1-[[2,5-dichloro-4-[(1-methyl-1H-indol-3-ylcarbonyl)amino]phenyl]acetyl]-(4S)-(4-methyl-3-oxopiperazin-1-yl)-(2S)-pyrrolidinylmethoxy]cyclohexanecarboxylic acid], affinity was put at a Ki of 3.9 nM and the IC50 was determined as 11 nM.
On the same counts, the results for `C[C@@H]1CC[C@@H](C)N1[C@H]1C[C@@H](CO[C@H]2CC[C@H](C(=O)O)CC2)N(C(=O)Cc2cc(Cl)c(NC(=O)c3coc4ccccc34)cc2F)C1` [Example 47, Trans-4-[1-[[4-[(benzo[b]furan-3-ylcarbonyl)amino]-5-chloro-2-fluorophenyl]acetyl]-(4S)-[(2R,5R)-dimethylpyrrolidin-1-yl]-(2S)-pyrrolidinylmethoxy]cyclohexanecarboxylic acid] are 18 nM and 52 nM.
As to `CCOC[C@@H]1CCCN1[C@H]1C[C@@H](CO[C@H]2CC[C@H](C(=O)O)CC2)N(C(=O)Cc2cc(Cl)c(NC(=O)c3csc4ccccc34)cc2Cl)C1` [Example 43, Trans-4-[1-[[4-[(benzo[b]thiophen-3-ylcarbonyl)amino]-2,5-dichlorophenyl]acetyl]-(4S)-[(2S)-ethoxymethylpyrrolidin-1-yl]-(2S)-pyrrolidinylmethoxy]cyclohexanecarboxylic acid], the Ki was 2 nM and the IC50 was 38 nM.
